In patent US10064848B2, “Pyridic ketone derivatives, method of preparing same, and pharmaceutical application thereof” (Shanghai Hengrui Pharmaceutical Co., Ltd., priority 2013, dated 2018):

Legend:
Colo205 cell = test: Proliferation inhibition on Colo205 (CCK8); type: cell-based; conditions: Homo sapiens, COLO 205, Colo205, 72 hours
Description: Cell line used in the assay: Colo205 (Cell Bank of the Chinese Academy of Sciences, Catalog No. TCHu102).
The following in vitro cell assay is to determine the activity of the compounds of the present invention for inhibiting the proliferation of human colon cancer cell, and the activity is expressed as IC50. General programs of this kind of assay were as follows: First, the cell line to be tested (purchased from Cell Bank of the Chinese Academy of Sciences) was inoculated in a 96-well culture plate with a suitable cell concentration of 4000 cells/mL medium, and was cultured in a carbon dioxide incubator at 37° C., then grown overnight. The medium was replaced by new medium added with a series of concentrations (10000 nM, 1000 nM, 100 nM, 10 nM, 1 nM, 0.1 nM) of the test compound solutions. The plates were placed back in the incubator, and continuously cultured for 72 hours. After 72 hours, CCK8 (Cell Counting Kit-8, Catalog No.: CK04, purchased from colleagues chemical company) method was used to determine the proliferation inhibition activity of the test compounds. IC50 values were calculated from the inhibition data of the test compounds at a series of different concentrations.
The above assay was used to determine the biochemical activity of the compounds of the present invention.

[1] = target: T1, MEK1 (Recombinant Human Protein) (Homo sapiens, UniProt Q02750); test: MEK1 kinase inhibition assay (Z'-LYTE Kinase Assay Kit-Ser/Thr 03 Peptide); type: biochemical; conditions: 4 hours at 37° C, read-out: IC50 for inhibiting MEK kinase (MEK1)
T1 construct: purchased Invitrogen PV3093
T1 sequence (Q02750 whole entry): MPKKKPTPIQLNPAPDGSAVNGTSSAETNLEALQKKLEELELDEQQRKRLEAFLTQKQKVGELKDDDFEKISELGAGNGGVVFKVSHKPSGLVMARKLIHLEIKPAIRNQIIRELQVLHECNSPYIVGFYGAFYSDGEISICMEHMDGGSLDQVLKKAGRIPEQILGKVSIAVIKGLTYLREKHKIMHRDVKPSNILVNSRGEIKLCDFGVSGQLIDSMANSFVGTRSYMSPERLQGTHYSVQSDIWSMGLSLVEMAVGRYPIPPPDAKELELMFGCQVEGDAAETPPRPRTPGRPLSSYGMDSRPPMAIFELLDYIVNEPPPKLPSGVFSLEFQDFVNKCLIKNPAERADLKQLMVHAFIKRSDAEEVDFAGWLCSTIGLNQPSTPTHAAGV
Method: MEK1 kinase activity was tested in vitro by the following method.
MEK kinase used in the assay: MEK1 (Recombinant Human Protein, Invitrogen, Catalog No. PV3093).
Kit used in the assay: Z′-LYTE™ Kinase Assay Kit-Ser/Thr 03 Peptide (Invitrogen, Catalog No. PV3176).
The following in vitro assay was used to determine the activity of the compounds of the present invention for inhibiting the […] MEK kinase. The test compound was dissolved in dimethyl sulfoxide to the desired concentration. 1× Buffer A (Invitrogen, Catalog No. PV3189) was prepared, ATP was diluted with 1× Buffer A to obtain 400 μM ATP solution, appropriate amounts of Z′-LYTE™ Ser/Thr 03 Peptide (Invitrogen, Catalog No. PV3200), MEK kinase (MEK1) Enzymes and 1× Buffer A were mixed, and appropriate amounts of Z′-LYTE™ Ser/Thr 03 phosphoPeptide substrate (Invitrogen, Catalog No. PV3215) and 1× Buffer A were formulated into a mixture to be tested. The 4% DMSO solution of the test compound was prepared from 1× buffer and DMSO solution of the test compound. 2.5 μL DMSO solution of the test compound was added to a reaction well, and then 1× Buffer A, 2.5 μL of 400 μM ATP solution, 5 μL of enzyme and substrate mixture were added to become a 10 μL of reaction system. The reaction system was incubated for 4 hours at 37° C., and a mixture was prepared according to Reagent A:Buffer B=1:1024. 5 μL of a mixture of Reagent A (Invitrogen, Catalog No. PV3295) and Buffer B (Invitrogen, Catalog No. P3127) was added to a reaction well, the reaction system was incubated for 60 minutes at 25° C. The fluorescence was read by a NovoStar ELISA with excitation wavelength: 400 nm, and emission wavelength: 445 nm and 520 nm.
The activity of the compounds of the present invention: The above assay was used to determine the biochemical activity of the compounds of the present invention for inhibiting MEK kinase (MEK1).

CCC(=O)Nc1cccc(Oc2cc(=O)n(C)c(Nc3ccc(I)cc3F)c2C(N)=O)c1C [Example 8, 4-(3-propionamido-2-methylphenoxy)-2-((2-fluoro-4-iodophenyl)amino)-1-methyl-6-oxo-1,6-dihydropyridine-3-carboxamide]
IC50 (Colo205 cell): 0.5 nM | IC50 [1]: 3.2 nM

Cc1ccc(Oc2cc(=O)n(C)c(Nc3ccc(I)cc3F)c2C(N)=O)c(Cl)c1 [Example 15, 4-(2-chloro-4-methylphenoxy)-2-((2-fluoro-4-iodophenyl)amino)-1-methyl-6-oxo-1,6-dihydropyridine-3-carboxamide]
IC50 (Colo205 cell): 10.2 nM | IC50 [1]: 8.2 nM

CNC(=O)c1cccc(Oc2cc(=O)n(C)c(Nc3ccc(I)cc3F)c2C(N)=O)c1C [Example 10, 4-(2-methyl-3-(methylcarbamoyl)phenoxy)-2-((2-fluoro-4-iodophenyl)amino)-1-methyl-6-oxo-1,6-dihydropyridine-3-carboxamide]
IC50 (Colo205 cell): 4.3 nM | IC50 [1]: 6.3 nM

Cc1c(F)cccc1Oc1cc(=O)n(C)c(Nc2ccc(I)cc2F)c1C(=O)NC[C@H](O)CO [Example 28, (S)-N-(2,3-dihydroxypropyl)-4-(3-fluoro-2-methylphenoxy)-2-((2-fluoro-4-iodophenyl)amino)-1-methyl-6-oxo-1,6-dihydropyridine-3-carboxamide]
IC50 [1]: 26 nM

CCS(=O)(=O)Nc1cccc(Oc2cc(=O)n(C)c(Nc3ccc(I)cc3F)c2C(=O)NC)c1C [Example 2, N,1-dimethyl-4-(3-(ethylsulfonamido)-2-methylphenoxy)-2-((2-fluoro-4-iodophenyl)amino)-6-oxo-1,6-dihydropyridine-3-carboxamide]
IC50 (Colo205 cell): 4.7 nM | IC50 [1]: 19 nM

Cc1c(F)cccc1Oc1cc(=O)n(C)c(Nc2ccc(I)cc2F)c1C(=O)NC[C@@H](O)CO [Example 27, (R)-N-(2,3-dihydroxypropyl)-4-(3-fluoro-2-methylphenoxy)-2-((2-fluoro-4-iodophenyl)amino)-1-methyl-6-oxo-1,6-dihydropyridine-3-carboxamide]
IC50 [1]: 28.3 nM

Cc1ccccc1Oc1cc(=O)n(C)c(Nc2ccc(I)cc2F)c1C(N)=O [Example 23, 4-(2-methylphenoxy)-2-((2-fluoro-4-iodophenyl)amino)-1-methyl-6-oxo-1,6-dihydropyridine-3-carboxamide]
IC50 (Colo205 cell): 0.4 nM | IC50 [1]: 4.2 nM

Cc1ccc(Oc2cc(=O)n(C)c(Nc3ccc(I)cc3F)c2C(N)=O)c(C)c1 [Example 20, 4-(2,4-dimethylphenoxy)-2-((2-fluoro-4-iodophenyl)amino)-1-methyl-6-oxo-1,6-dihydropyridine-3-carboxamide]
IC50 (Colo205 cell): 1.7 nM | IC50 [1]: 2.9 nM

Cc1cccc(Oc2cc(=O)n(C)c(Nc3ccc(I)cc3F)c2C(N)=O)c1C [Example 18, 4-(2,3-dimethylphenoxy)-2-((2-fluoro-4-iodophenyl)amino)-1-methyl-6-oxo-1,6-dihydropyridine-3-carboxamide]
IC50 (Colo205 cell): 1.4 nM | IC50 [1]: 7.9 nM

Cc1c(NC(=O)C2CC2)cccc1Oc1cc(=O)n(C)c(Nc2ccc(I)cc2F)c1C(N)=O [Example 7, 4-(3-(cyclopropanecarboxamido)-2-methylphenoxy)-2-((2-fluoro-4-iodophenyl)amino)-1-methyl-6-oxo-1,6-dihydropyridine-3-carboxamide]
IC50 (Colo205 cell): 0.4 nM | IC50 [1]: 5.5 nM

Cc1c(Cl)cccc1Oc1cc(=O)n(C)c(Nc2ccc(I)cc2F)c1C(N)=O [Example 14, 4-(3-chloro-2-methylphenoxy)-2-((2-fluoro-4-iodophenyl)amino)-1-methyl-6-oxo-1,6-dihydropyridine-3-carboxamide]
IC50 (Colo205 cell): 4.2 nM | IC50 [1]: 6.2 nM

COc1cccc(Oc2cc(=O)n(C)c(Nc3ccc(I)cc3F)c2C(N)=O)c1C [Example 16, 4-(3-methoxy-2-methylphenoxy)-2-((2-fluoro-4-iodophenyl)amino)-1-methyl-6-oxo-1,6-dihydropyridine-3-carboxamide]
IC50 (Colo205 cell): 11.5 nM | IC50 [1]: 9.5 nM

Cc1ccc(Oc2cc(=O)n(C)c(Nc3ccc(I)cc3F)c2C(N)=O)c(F)c1 [Example 17, 4-(2-fluoro-4-methylphenoxy)-2-((2-fluoro-4-iodophenyl)amino)-1-methyl-6-oxo-1,6-dihydropyridine-3-carboxamide]
IC50 (Colo205 cell): 2 nM | IC50 [1]: 8.4 nM

Cc1c(F)cccc1Oc1c(C(N)=O)c(Nc2ccc(I)cc2F)n(C)c(=O)c1F [Example 26, 5-fluoro-4-(3-fluoro-2-methylphenoxy)-2-((2-fluoro-4-iodophenyl)amino)-1-methyl-6-oxo-1,6-dihydropyridine-3-carboxamide]
IC50 [1]: 3.9 nM

Cc1cccc(C)c1Oc1cc(=O)n(C)c(Nc2ccc(I)cc2F)c1C(N)=O [Example 21, 4-(2,6-dimethylphenoxy)-2-((2-fluoro-4-iodophenyl)amino)-1-methyl-6-oxo-1,6-dihydropyridine-3-carboxamide]
IC50 (Colo205 cell): 10.2 nM | IC50 [1]: 6.3 nM

CC(=O)c1cccc(Oc2cc(=O)n(C)c(Nc3ccc(I)cc3F)c2C(N)=O)c1C [Example 13, 4-(3-acetyl-2-methylphenoxy)-2-((2-fluoro-4-iodophenyl)amino)-1-methyl-6-oxo-1,6-dihydropyridine-3-carboxamide]
IC50 (Colo205 cell): 2.9 nM | IC50 [1]: 5.5 nM

CCS(=O)(=O)Nc1cccc(Oc2c(C(N)=O)c(Nc3ccc(I)cc3F)n(C)c(=O)c2Cl)c1C [Example 5, 4-(3-(ethylsulfonamido)-2-methylphenoxy)-2-((2-fluoro-4-iodophenyl)amino)-1-methyl-5-chloro-6-oxo-1,6-dihydropyridine-3-carboxamide]
IC50 [1]: 4 nM

Cc1ccncc1Oc1cc(=O)n(C)c(Nc2ccc(I)cc2F)c1C(N)=O [Example 33, 2-((2-fluoro-4-iodophenyl)amino)-1-methyl-4-((4-methylpyridin-3-yl)oxy)-6-oxo-1,6-dihydropyridine-3-carboxamide]
IC50 [1]: 7.3 nM

Cc1c(Oc2cc(=O)n(C)c(Nc3ccc(I)cc3F)c2C(N)=O)cccc1O[C@@H]1CCOC1 [Example 12, (R)-2-((2-fluoro-4-iodophenyl)amino)-1-methyl-4-(2-methyl-3-((tetrahydrofuran-3-yl)oxy)phenoxy)-6-oxo-1,6-dihydropyridine-3-carboxamide]
IC50 (Colo205 cell): 0.7 nM | IC50 [1]: 5.1 nM

Cc1c(Oc2cc(=O)n(C)c(Nc3ccc(I)cc3F)c2C(N)=O)cccc1O[C@H]1CCOC1 [Example 9, (S)-2-((2-fluoro-4-iodophenyl)amino)-1-methyl-4-(2-methyl-3-((tetrahydrofuran-3-yl)oxy)phenoxy)-6-oxo-1,6-dihydropyridine-3-carboxamide]
IC50 (Colo205 cell): 0.3 nM | IC50 [1]: 6 nM

CCS(=O)(=O)Nc1cccc(Oc2c(C(N)=O)c(Nc3ccc(I)cc3F)n(C)c(=O)c2F)c1C [Example 6, 4-(3-(ethylsulfonamido)-2-methylphenoxy)-2-((2-fluoro-4-iodophenyl)amino)-1-methyl-5-fluoro-6-oxo-1,6-dihydropyridine-3-carboxamide]
IC50 [1]: 3.4 nM

Cc1cccc(Oc2cc(=O)n(C)c(Nc3ccc(I)cc3F)c2C(N)=O)c1F [Example 19, 4-(2-fluoro-3-methylphenoxy)-2-((2-fluoro-4-iodophenyl)amino)-1-methyl-6-oxo-1,6-dihydropyridine-3-carboxamide]
IC50 (Colo205 cell): 0.8 nM | IC50 [1]: 5.8 nM
